# ChEMBL document CHEMBL1139617, “Total synthesis and bioactivity of unique flavone desmosdumotin B and its analogs” (2005)
# Tested on: Raji
# Test: Percent viability of Raji cells at concentration of 1000 mol ratio / 20 ng/mL TPA
# Assay type: functional, Homo sapiens
row,SMILES,Viability
1,CC1(C)C(=O)C(C(=O)/C=C/c2ccccc2)=C(O)C(C)(C)C1=O,70%
2,CC1=C(O)C(C)(C)C(O)=C(C(=O)/C=C/c2ccccc2)C1O (stereo unspecified),70%
3,COC1=C(C)C(=O)c2c(oc(-c3ccccc3)cc2=O)C1(C)C,70%
4,CC(=O)C1=C(O)C(C)(C)C(O)=C(C(C)=O)C1=O,60%
5,CC(=O)C1=C(O)C(C)(C)C(O)=CC1=O,60%
6,CC(=O)C1=C(O)C(C)=C(O)C(C)(C)C1=O,60%
7,CC(=O)c1c(O)cc(O)c(C(C)=O)c1O,60%
8,CC(=O)C1=C(O)C(C)(C)C(=O)C(C)(C)C1=O,60%
9,CC1=C(O)C(C)(C)C2=C(C(=O)CC(c3ccccc3)O2)C1=O (stereo unspecified),70%
10,COC1=C(C)C(O)=C(C(=O)/C=C/c2ccccc2)C(=O)C1(C)C [DESMOSDUMOTIN C],70%
11,CC1=C(O)C(C)(C)c2oc(-c3ccccc3)cc(=O)c2C1=O [DESMOTUMOTIN B],70%
